Settings: Liquid, Capillary tube (Ostwald / Ubbelohde) method

CCC(C)CC(C)(C)C (stereo unspecified) [2,2,4-trimethylhexane]
293.15 K
Settings	viscosity [mPa·s]
100 kPa	0.64
25000 kPa	0.844
50000 kPa	1.101
100000 kPa	1.71
150000 kPa	2.54
250000 kPa	5.31
350000 kPa	10.67
400000 kPa	15
500000 kPa	30.9
600000 kPa	62.9
700000 kPa	126.9
800000 kPa	264
900000 kPa	558
1000000 kPa	1187

CC(C)CC(C)(C)C [2,2,4-trimethylpentane]
298.15 K
Settings	viscosity [mPa·s]
100 kPa	0.48
26000 kPa	0.641
50000 kPa	0.809
100000 kPa	1.207
200000 kPa	2.35
312000 kPa	4.41
407000 kPa	7.7
499000 kPa	12.63
600000 kPa	21.3
700000 kPa	36.4
800000 kPa	61.5
900000 kPa	104.8

— the NIST ThermoML archive (doi:10.1016/j.fluid.2019.01.021)
